Results as given in US20230272368A1, “PRODUCTS AND METHODS FOR DETECTION OF VIRAL NUCLEIC ACID” (priority 2020, published 2023).

Settings: compared with sodium dodecyl sulfate (SDS)

sodium lauroyl sarcosinate [SLS]
solubility in the compositions: detergent to be substantially more soluble in our
